Earlier results, collected in patent publication US6277391A, “Composition and method of treating diseases and disorders of the prostate” (Samyang Corporation, priority 1998, dated 2001).

Settings: 300 mg PO b.i.d., oral or intravenous, at the end of regimen; 60480 min

Structure (SMILES): CC1COc2c(N3CCN(C)CC3)c(F)cc3c(=O)c(C(=O)O)cn1c23 (stereo not shown) [ofloxacin]
- ofloxacin concentrations in the prostate: 1 to 4 µg/g
